Assay results taken from patent US12281205B2, “Modified antibacterial compositions and methods” (priority 2016, dated 2025).
Values after ≈ are worked out from the molar mass of the structure shown. Values joined by “and” are separate entries in the source; they are usually repeats but may differ in a detail not shown here. Equal entries are not always repeated. Where two headings read alike, the source gives them in different places. Where no end group is shown, it is not given here.

What was measured:
[1] = tested on: MDR A. baumannii (FADDI-AB156); assay: Antibiogram of MDR A. baumannii; assay type: cell-based, Acinetobacter baumannii; conditions: for Susceptibility: CLSI resistant breakpoints
[2] = tested on: MDR P. aeruginosa (FADDI-PA067); assay: Antibiogram of MDR P. aeruginosa; assay type: cell-based, Pseudomonas aeruginosa; conditions: for Susceptibility: CLSI resistant breakpoints
[3] = tested on: CMDR A. baumannii (FADDI-AB156); assay: Mouse peritonitis model; assay type: in vivo, C57BL/6 mice; conditions: 24 h infection
E. coli = assay: Minimum inhibitory concentration (MIC), broth microdilution; assay type: cell-based; conditions: Escherichia coli
Method: The MICs of the PAMAM dendrimers were determined using a broth microdilution method. After the preparation of a dilution series of each compound and the addition of bacterial cells (Note: steps identical to that taken for the measurement of MBC), the optical density readings of each well at 630 nm were measured as a function of time using a microplate reader (Multiskan Ascent, Pathtech Pty. Ltd.). Positive controls containing cells alone were incorporated. Optical density was plotted against polymer concentration and linear regression analysis was used to determine the lowest concentration (MIC) at which the optical density reading becomes zero. A minimum of two independent experiments (biological replicates) of the assay were conducted and two technical replicates were used in each experiment for each bacterium, polymer, and concentration. Data is expressed as mean±standard deviation (SD) of the biological replicates and analysed using student's t-test.

[4] = tested on: sheep red blood cells (RBCs); assay: Hemolysis assay
Method: Fresh sheep red blood cells (RBCs) were diluted 1 in 20 in PBS (pH 7.4), pelleted by centrifugation, and washed three times in PBS (1000 g, 10 min). The RBCs were counted using a cell counter (Coulter Particle Counter Z series, Beckman Coulter) and diluted to a final concentration of 2×10^7 cells/mL. 100 μL aliquots of the RBC solution were seeded into a V-bottomed 96-well plate containing 100 μL of test compound solution of varying concentrations (4-256 μg/mL) and incubated in a humidified atmosphere containing 5% CO2 at 37° C. for 2 h. Following incubation, the 96-well plate was centrifuged (1000 g, 10 min) and aliquots (100 μL) of supernatant were transferred to a flat-bottomed 96-well plate. Hemoglobin release upon lysis of the RBCs was monitored at 405 nm using a microplate reader (PerkinElmer 1420 Multilabel Counter VICTOR^3). Positive and negative controls for hemolysis were taken as RBC lysed with 0.5% Triton X-100 (1:1 v/v) and RBC suspension in PBS, respectively. The percentage of hemolysis was calculated using the following formula:
The percentage hemolysis was plotted against peptide polymer concentration and linear regression analysis was used to determine the hemolytic concentration needed to lyse 50% (HC50) of RBCs. Two independent runs of the assay were conducted and two replicates were used in each run for each compound and concentration.
Fresh sheep red blood cells (RBCs) were diluted 1 in 20 in PBS (pH 7.4), pelleted by centrifugation, and washed three times in PBS (1000 g, 10 min). The RBCs were counted using a cell counter (Coulter Particle Counter Z series, Beckman Coulter) and diluted to a final concentration of 2×10^7 cells/mL. 100 μL aliquots of the RBC solution were seeded into a V-bottomed 96-well plate containing 100 μL of polypeptide solution of varying concentrations (4-256 μg/mL) and incubated in a humidified atmosphere containing 5% CO2 at 37° C. for 2 h. Following incubation, the 96-well plate was centrifuged (1000 g, 10 min) and aliquots (100 μL) of supernatant were transferred to a flat-bottomed 96-well plate. Hemoglobin release upon lysis of the RBCs was monitored at 405 nm using a microplate reader (PerkinElmer 1420 Multilabel Counter VICTOR3). Positive and negative controls for hemolysis were taken as RBC lysed with 0.5% Triton X-100 (1:1 v/v) and RBC suspension in PBS, respectively. The percentage of hemolysis was calculated using the following formula:
The percentage hemolysis was plotted against polypeptide concentration and linear regression analysis was used to determine the hemolytic concentration needed to lyse 50% (HC50) of RBCs. Two independent runs of the assay were conducted and two replicates were used in each run for each polypeptide and concentration.

E. coli (ATCC 25922) = assay: Minimum bactericidal concentration (MBC); assay type: cell-based, Escherichia coli; set-up: unit not given here; conditions: MHB
From the text: (§1) The number of colony-forming units (CFU) was counted and expressed as CFU/mL. Positive controls consisting of cells without any treatment were used.
as §1

[5] = tested on: K. pneumoniae (ATCC 13883); assay: Minimum bactericidal concentration (MBC); assay type: cell-based, Klebsiella pneumoniae; set-up: unit not given here; conditions: MHB
Method: (§2) A dilution series of each compound was made by diluting test compound stock in media to a desired range of concentrations and a final volume of 100 μL in each well of a 96-well plate. Bacterial cells (which gave an optical density reading of ˜0.7 at 650 nm for E. coli, K. pneumoniae, P. aeruginosa, and S. aureus, ˜0.5 at 650 nm for A. baumannii and ˜1.8 at 650 nm for S. mutans) were diluted to 2.5×10^6 cells/mL in media and 100 μL of the bacteria solution was added to each well. The 96-well plate was then incubated at 37° C. for 90 min. For each well, microbial solution was diluted with saline (0.9% NaCl solution) using an appropriate dilution factor and placed on an agar plate (identical to that used for bacteria culture). For E. coli, K. pneumoniae, A. baumannii, and S. aureus, the agar plates were incubated overnight at room temperature, and then at 37° C. with aeration for 2 h. For P. aeruginosa and S. mutans, the agar plates were incubated at 37° C., with the former being incubated overnight with aeration and the latter in an anaerobic chamber for 48 h. The number of colony-forming units (CFU) was counted and expressed as CFU/mL. Positive controls consisting of cells without any treatment were used. […] Data is expressed as mean±standard deviation (SD) of the biological replicates and analysed using student's t-test. […]

[6] = tested on: A. baumannii (ATCC 19606); assay: Minimum bactericidal concentration (MBC); assay type: cell-based, Acinetobacter baumannii; set-up: unit not given here; conditions: MHB
Method: as §2

[7] = tested on: P. aeruginosa (ATCC 47085); assay: Minimum bactericidal concentration (MBC); assay type: cell-based, Pseudomonas aeruginosa; set-up: unit not given here; conditions: MHB
Method: as §2

[8] = concentration giving 50% hemolysis, 2 h

`NCC[C@H](O)C(=O)N[C@@H]1C[C@H](N)[C@@H](O[C@H]2O[C@H](CN)[C@@H](O)[C@H](O)[C@H]2O)[C@H](O)[C@H]1O[C@H]1O[C@H](CO)[C@@H](O)[C@H](N)[C@H]1O` [Amikacin] was tested, and the Susceptibility [1] was “Resistant”.
For `CC1(C)S[C@@H]2[C@H](NC(=O)[C@H](N)c3ccccc3)C(=O)N2[C@H]1C(=O)O` [Ampicillin], the MIC ([1]; Acinetobacter baumannii) was at least 91.6 µM and the Susceptibility [1] was “Resistant”.
In the case of `C[C@H]1[C@H](NC(=O)/C(=N\OC(C)(C)C(=O)O)c2csc(N)n2)C(=O)N1S(=O)(=O)O` [Aztreonam], the Susceptibility [2] is reported as “Resistant”.
For `Cc1nnc(SCC2=C(C(=O)O)N3C(=O)[C@@H](NC(=O)Cn4cnnn4)[C@H]3SC2)s1` [Cefazolin], the Susceptibility [1] was “Resistant”.
For `CO/N=C(\C(=O)N[C@@H]1C(=O)N2C(C(=O)[O-])=C(C[N+]3(C)CCCC3)CS[C@H]12)c1csc(N)n1` [Cefepime], the Susceptibility [1] was “Resistant”.
For `CO[C@@]1(NC(=O)Cc2cccs2)C(=O)N2C(C(=O)O)=C(COC(N)=O)CS[C@@H]21` [Cefoxitin], the Susceptibility [1] was “Resistant”.
For `CC(C)(O/N=C(\C(=O)N[C@@H]1C(=O)N2C(C(=O)[O-])=C(C[n+]3ccccc3)CS[C@H]12)c1csc(N)n1)C(=O)O` [Ceftazidime], the Susceptibility [2] was “Resistant” and the Susceptibility [1] was “Resistant”.
For `CO/N=C(\C(=O)N[C@@H]1C(=O)N2C(C(=O)O)=C(CSc3nc(=O)c(=O)[nH]n3C)CS[C@H]12)c1csc(N)n1` [Ceftriaxone], the Susceptibility [1] was “Resistant”.
`C[C@@H](O)[C@H]1C(=O)N2C(C(=O)O)=C(SCCN=CN)C[C@H]12` [Imipenem] showed a survival [3] of 50% and an MIC ([1]; Acinetobacter baumannii) of at least 214 µM.
With `C[C@@H](O)[C@H]1C(=O)N2C(C(=O)O)=C(S[C@@H]3CN[C@H](C(=O)N(C)C)C3)[C@H](C)[C@H]12` [Meropenem] the Susceptibility [1] was “Resistant”.
For `CCn1cc(C(=O)O)c(=O)c2ccc(C)nc21` [Nalidixic Acid], the Susceptibility [1] was “Resistant”.
In the case of `CCn1cc(C(=O)O)c(=O)c2cc(F)c(N3CCNCC3)cc21` [Norfloxacin], the Susceptibility [1] is reported as “Resistant”.
For `CCN1CCN(C(=O)N[C@@H](C(=O)N[C@@H]2C(=O)N3[C@@H]2SC(C)(C)[C@@H]3C(=O)O)c2ccccc2)C(=O)C1=O` [Piperacillin], the Susceptibility [2] was “Resistant”.
For `CC1(C)S[C@@H]2[C@H](NC(=O)[C@H](C(=O)O)c3ccsc3)C(=O)N2[C@H]1C(=O)O` [Ticarcillin], the Susceptibility [2] was “Resistant”.
In the case of `NC[C@H]1O[C@H](O[C@H]2[C@H](O)[C@@H](O[C@H]3O[C@H](CO)[C@@H](O)[C@H](N)[C@H]3O)[C@H](N)C[C@@H]2N)[C@H](N)C[C@@H]1O` [Tobramycin], the Susceptibility [2] is reported as “Resistant”, the MIC ([1]; Acinetobacter baumannii) is reported as at least 34.2 µM and the Susceptibility [1] is reported as “Resistant”.
In the case of `COc1cc(Cc2cnc(N)nc2N)cc(OC)c1OC` [Trimethoprim], the Susceptibility [1] is reported as “Resistant”.
For `C[C@H]1c2cccc(O)c2C(=O)C2=C(O)[C@]3(O)C(=O)C(C(N)=O)=C(O)[C@@H](N(C)C)[C@@H]3[C@@H](O)[C@@H]21` [doxycycline], the MIC (E. coli) was 0.5 µg/mL (≈ 1.13 µM).
With Amoxicillin/Clavulanic Acid the MIC [1] was at least 87.6 µM and the Susceptibility [1] was “Resistant”.
Colistin Sulfate was tested, and the “Susceptibility, concentration in parentheses” value [2] was over 110.8 µM, the Susceptibility [2] was “Resistant” and the MIC [1] was 13.8 µM. For the same compound, the Susceptibility [1] was “Resistant”.
With “GIGKFLHSAKKFGKAFVGEIMNS-NH2 [Magainin II]” the HC50 [4, 8] was 81.1 µM and the HC50 ([4]; extrapolated from FIG. 59) was 33 μg/mL and 81.1 μM.
With Gentamicin the Susceptibility [2] was “Resistant”, the MIC [1] was at least 33.5 µM and the Susceptibility [1] was “Resistant”.
For “Ovispirin: antimicrobial peptide NH2- KNLRRIIRKIIHIIKKYG-COOH (H-KNLRRIIRKIIHIIKKYG-OH; also: SNAPP conjugate)”, the MBC (E. coli (ATCC 25922)) was 8.39 ± 0.44, the HC50 [4, 8] was 61.8 µM and the HC50 ([4]; extrapolated from FIG. 59) was 27 μg/mL and 61.8 μM. For the same compound, the MBC [5] was 11.49 ± 4.86, the MBC [6] was 2.21 ± 0.88 and the MBC [7] was 95.49 ± 9.73.
Piperacillin/Tazobactam was tested, and the MIC [1] was at least 247.3 µM and the Susceptibility [1] was “Resistant”.
Ticarcillin/Clavulanic Aid was tested, and the MIC [1] was at least 333.0 µM and the Susceptibility [1] was “Resistant”.
With Trimethoprim/Sulfamethoxazole the MIC [1] was at least 1102.2 µM and the Susceptibility [1] was “Resistant”.
